Legend:
[1] = system: dihydrofolate reductase (DHFR); details: bacterial vs mammalian DHFR; competes with substrate dihydrofolate; cited from earlier work
E. coli PPAT = target: T1, E. coli PPAT (Escherichia coli, UniProt P0A6I6); assay: Assay for inhibitors of E. coli PPAT (pyrophosphate-dependent cleavage of dephosphocoenzyme A, coupled spectrophotometric assay at 340 nm); assay type: biochemical; details: test compound at 0.05 mM, 25° C., compared with control without inhibitor
T1 construct: made in house; host or cells: E. coli (plasmid pUC/PPAT, pUC19 backbone)
Procedure: The activity of the PPAT enzyme was assayed by monitoring the pyrophosphate dependent cleavage of dephosphocoenzyme A which produced ATP and phosphopantetheine. The reaction contains in a final volume of 1 ml: 50 mM Tris-HCl containing 2 mM tetrasodium pyrophosphate, pH 8.0; 1 mM dithiothreitol; 1 mM NADP; 2 mM MgCl2; 5 mM glucose; 9 μg yeast hexokinase; and 7 μg yeast glucose 6-phosphate dehydrogenase. Reactions were monitored spectrophotometrically at 25° C. by following the increase in absorbance at 340 nm.
Inhibition studies were carried out using the reaction conditions described above. Test compounds were added to a final concentration of 0.05 mM, and the percentage inhibition determined by comparison with a control in which no test inhibitor is present.

T1 sequence (P0A6I6 whole entry): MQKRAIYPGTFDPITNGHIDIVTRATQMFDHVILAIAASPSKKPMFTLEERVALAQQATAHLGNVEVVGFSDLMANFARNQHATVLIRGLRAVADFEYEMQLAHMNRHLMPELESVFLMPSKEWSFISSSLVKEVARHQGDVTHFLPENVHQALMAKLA

Structure (SMILES) | bound more tightly by bacterial than mammalian forms of DHFR [1] | inhibition at 50 µM (E. coli PPAT)
COc1cc(Cc2cnc(N)nc2N)cc(OC)c1OC [trimethoprim] | 50,000 fold | 
O=C1CC(=O)c2ccc3c4c(ccc1c24)C(=O)CC3=O [1,2,3,6,7,8-hexahydropyrene-1,3,6,8-tetraone] |  | ~60%

From US6696268B1, “Production and use of antimicrobial agents” (Pantherix, Ltd., priority 1998, dated 2004)
